Test results reported in article PMC6075749 (PLoS ONE, 2018).
Where “and” joins values, the source holds several entries; their conditions need not be identical. Equal values may be shown once. Entries after “also recorded” stand apart in the source; their conditions may differ. Read-outs that look alike come from different tables or passages of the source.

Tests used:
[1] = target: T1, recombinant human MMP-14 catalytic domain (Homo sapiens, UniProt P50281); assay: Initial rate fluorescence assay, MMP-14 catalytic domain, substrate Mca-PLGLDpaAR-NH2 (Km, Ki); format: biochemical
T1 construct: recombinant MMP-14 (catalytic domain) were from Calbiochem; purchased Calbiochem (San Diego, CA, USA)
Procedure: (§1) To determine the kinetic and inhibitor kinetic coefficients Km, and Ki, initial rate experiments were performed using a Perkin Elmer LS 50 Luminescence spectrometer and the FL WinLab Software Package (Perkin Elmer). The reactions were followed for one minute and during that time 600 data points were collected. The excitation and emission wavelengths for the two fluorescence quenched MMP peptide substrates, McaPLGLDpaAR-NH2 and Mca-[…](Dpn)-OH were; λex = 320 nm, λem = 405 nm and a slit width = 10 nm at both wavelengths. All assays were performed at 37°C in an assay buffer of 0.1 M Hepes pH 7.5, 0.005% Brij-35, 10 mM CaCl2 and a total assay volume of 100 μl.
(§2) The Km value was calculated from non-linear regression of the Michaelis-Menten equation using the Enzyme kinetic module in GraphPad Prism 5.
(§3) A fixed substrate concentration of 5.0 μM and / or 10 μM and a fixed enzyme concentration along with varying concentrations of potential inhibitor were used to determine the inhibitory capacity of the two compounds. […] For a competitive inhibitor, the IC50 value equals Ki(1+[S]/Km). For tight binding competitive inhibitors (Ki ≤ [E]), the values of Ki and [E] were obtained by both a dose response plot (vi/v0 against [I]) using the Morrison equation [71] (2) and through the linear Henderson Plot (Eq 3). For tight binding inhibitors, the enzyme was pre-incubated for 15 min at 37°C in the presence of inhibitor and the reaction was started by the addition of substrate. Graph Pad Prism 5 was used to calculate Ki and [E] values.

[2] = test system: MMP-14 (catalytic domain); conditions: cited from earlier work
[3] = target: T2, auerolysin (Staphylococcus aureus, UniProt P81177); assay: Initial rate fluorescence assay, auerolysin, substrate Mca-[…](Dnp)-OH (Km, Ki); format: biochemical
T2 construct: purchased BioCentrum Ltd (Kraków, Poland)
Procedure: as §1, §2, §3

[4] = target: T3, thermolysin (Bacillus thermoproteolyticus, UniProt P00800); design: purchased Calbiochem (San Diego, CA, USA); method as in Grobelny D et al. [58]; conditions: ref Grobelny D et al. [58]; cited from earlier work
[5] = test system: MMP-9; conditions: cited from earlier work
[6] = target: T4, pseudolysin (Pseudomonas aeruginosa, UniProt P14756); design: purchased Calbiochem (San Diego, CA, USA); conditions: ref Grobelny D et al. [58]; cited from earlier work
[7] = target: T4, pseudolysin; assay: Initial rate fluorescence assay, pseudolysin, substrate Mca-RPPGFSAFK(Dnp)-OH (Km, inhibition); conditions: N.I. = no inhibition up to 100 μM of inhibitor
Procedure: as §1, §2
(§4) A fixed substrate concentration of 5.0 μM and / or 10 μM and a fixed enzyme concentration along with varying concentrations of potential inhibitor were used to determine the inhibitory capacity of the two compounds. […] For a competitive inhibitor, the IC50 value equals Ki(1+[S]/Km). For tight binding competitive inhibitors (Ki ≤ [E]), the values of Ki and [E] were obtained by both a dose response plot (vi/v0 against [I]) using the Morrison equation [71] […]
(§5) The IC50 values were determined from a dose response plot vi/v0 vs log [Inhibitor] as described previously.

[8] = target: T3, thermolysin; assay: Initial rate fluorescence assay, thermolysin, substrate Mca-RPPGFSAFK(Dnp)-OH (Km, inhibition); conditions: N.I. = no inhibition up to 100 μM of inhibitor
Procedure: as §1, §2, §4, §5

[9] = target: four forms of activated MMP-9 (Homo sapiens, UniProt P14780); assay: Ki across the four forms of activated MMP-9 (summary); format: biochemical; conditions: ratio of Ki values, compound 1b vs galardin
Procedure: as §1, §3

[10] = test system: COc1ccc2c(CC(=O)N[C@@H](CCCNC(=N)N)C(=O)N3CCC[C@H]3C(=O)N3CCC[C@H]3C(=O)NCC(=O)N[C@@H](Cc3ccccc3)C(=O)N[C@@H](CO)C(=O)N[C@@H](C)C(=O)N[C@@H](Cc3ccccc3)C(=O)N[C@@H](CCCCNc3ccc([N+](=O)[O-])cc3[N+](=O)[O-])C(=O)O)cc(=O)oc2c1; assay: Initial rate fluorescence assay, auerolysin, substrate Mca-[…](Dnp)-OH (Km, Ki); format: biochemical, staphylococcus aureus; conditions: other: low precision; Km far above highest usable substrate concentration (10 μM); pH 7.5; 37.0 °C
Procedure: as §1, §2, §3

[11] = test system: COc1ccc2c(CC(=O)N[C@@H](CCCNC(=N)N)C(=O)N3CCC[C@H]3C(=O)N3CCC[C@H]3C(=O)NCC(=O)N[C@@H](Cc3ccccc3)C(=O)N[C@@H](CO)C(=O)N[C@@H](C)C(=O)N[C@@H](Cc3ccccc3)C(=O)N[C@@H](CCCCNc3ccc([N+](=O)[O-])cc3[N+](=O)[O-])C(=O)O)cc(=O)oc2c1; assay: purified protein, by the assay type; conditions: pH 7.5, 37.0 °C

T4 sequence (P14756 198-498): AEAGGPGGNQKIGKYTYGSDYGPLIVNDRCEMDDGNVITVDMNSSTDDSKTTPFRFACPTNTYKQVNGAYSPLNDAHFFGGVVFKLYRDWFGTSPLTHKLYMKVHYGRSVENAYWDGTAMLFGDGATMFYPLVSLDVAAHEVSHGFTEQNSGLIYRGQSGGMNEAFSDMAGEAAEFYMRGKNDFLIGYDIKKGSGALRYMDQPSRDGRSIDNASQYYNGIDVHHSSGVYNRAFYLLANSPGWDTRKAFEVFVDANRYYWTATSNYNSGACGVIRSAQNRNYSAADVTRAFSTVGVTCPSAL
T3 sequence (P00800 233-548): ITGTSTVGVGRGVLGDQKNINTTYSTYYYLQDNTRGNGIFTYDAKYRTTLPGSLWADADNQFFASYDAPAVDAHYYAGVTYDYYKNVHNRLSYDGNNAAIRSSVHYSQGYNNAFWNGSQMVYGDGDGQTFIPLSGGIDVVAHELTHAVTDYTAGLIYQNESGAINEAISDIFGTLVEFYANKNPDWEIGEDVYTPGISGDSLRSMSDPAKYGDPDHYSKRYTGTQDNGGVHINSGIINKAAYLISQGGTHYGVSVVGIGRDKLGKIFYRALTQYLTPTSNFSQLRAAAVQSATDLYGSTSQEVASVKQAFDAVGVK
T2 sequence (P81177 209-509): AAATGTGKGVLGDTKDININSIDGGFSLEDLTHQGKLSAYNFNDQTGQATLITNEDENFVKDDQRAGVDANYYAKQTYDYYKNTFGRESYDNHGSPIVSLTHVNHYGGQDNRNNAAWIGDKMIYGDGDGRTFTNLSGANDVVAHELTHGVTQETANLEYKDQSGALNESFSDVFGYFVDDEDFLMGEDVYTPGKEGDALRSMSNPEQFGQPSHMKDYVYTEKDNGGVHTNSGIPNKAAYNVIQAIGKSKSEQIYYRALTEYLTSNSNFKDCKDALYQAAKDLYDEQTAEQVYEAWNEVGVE
Chain of four forms of activated MMP-9 (P14780 107-508 limits assumed): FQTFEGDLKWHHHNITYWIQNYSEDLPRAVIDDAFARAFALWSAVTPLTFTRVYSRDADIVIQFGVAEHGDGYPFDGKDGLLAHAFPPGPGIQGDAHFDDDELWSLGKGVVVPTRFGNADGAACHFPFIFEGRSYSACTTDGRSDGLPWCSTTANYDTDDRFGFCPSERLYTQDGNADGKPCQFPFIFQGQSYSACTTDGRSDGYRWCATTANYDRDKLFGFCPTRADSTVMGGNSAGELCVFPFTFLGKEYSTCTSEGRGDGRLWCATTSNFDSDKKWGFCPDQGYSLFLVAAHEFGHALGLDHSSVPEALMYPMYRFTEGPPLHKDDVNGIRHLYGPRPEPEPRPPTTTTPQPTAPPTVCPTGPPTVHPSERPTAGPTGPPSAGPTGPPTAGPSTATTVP

**Q.** For `CNC(=O)[C@H](Cc1c[nH]c2ccccc12)NC(=O)[C@@H](CC(=O)NO)CC(C)C` [Galardin], which Ki ([1]; Ki ± s.d. per experiment, [S] 5.0 μM, read-out: Ki, Morrison equation, individual experiment) is on record?
**A.** The Ki was 0.95 nM and 0.78 nM and 0.82 nM and 0.91 nM and 0.89 nM.

**Q.** What about the Ki ([1]; Ki ± s.d. per experiment, [S] 5.0 or 10.0 μM, read-out: Ki, Henderson plot, individual experiment) of the same molecule?
**A.** The Ki was 0.78 nM (2×) and 0.86 nM and 0.76 nM and 1.16 nM.

**Q.** What about the Ki ([1]; average ± S.E.M. of independent experiments, 37°C, pH 7.5, read-out: Ki, Henderson plot, average) of the same molecule?
**A.** The Ki was 0.87 ± 0.07 nM.

**Q.** What about the Ki ([1]; average ± S.E.M. of independent experiments, read-out: Ki, Morrison equation, average) of the same molecule?
**A.** Its Ki is 0.87 nM.

**Q.** What about the IC50 [2] of the same molecule?
**A.** Its IC50 is 13.4 nM.

**Q.** And the IC50 [3]?
**A.** Its IC50 is 500 ± 40 nM.

**Q.** And the Ki ([3]; Ki app from the slope of the Henderson plot, 3.6 nM enzyme, r2 = 0.84, N = 16)?
**A.** Its Ki is 500 ± 60 nM.

**Q.** And the Ki ([3]; Ki from Henderson plot, from Ki app, 3.6 nM enzyme)?
**A.** Its Ki is 450 ± 50 nM.

**Q.** And the Ki ([3]; Ki from IC50 (dose response plot, Eq (1)))?
**A.** The Ki was 450 nM.

**Q.** And the Ki ([3]; Ki, from dose response plot using Eq (1), one experiment)?
**A.** Its Ki is 452 ± 35 nM.

**Q.** And the “binding to auerolysin, times weaker than binding to thermolysin and pseudolysin” value ([3]; ratio of Ki values)?
**A.** Its value is “about 25 times”.

**Q.** What about the Ki [4] of the same molecule?
**A.** Its Ki is 20 nM.

**Q.** What about the Ki [6] of the same molecule?
**A.** The Ki was 20 nM.

**Q.** For `O=C(NO)[C@H]1[C@@H](O)[C@H](O)[C@H](O)CN1S(=O)(=O)c1ccc(Oc2ccccc2)cc1` [compound 1b], which Ki ([1]; Ki, Henderson plot, average, average ± S.E.M. of independent experiments, 37°C, pH 7.5) is on record?
**A.** The Ki was 0.088 nM and 0.09 nM.

**Q.** And the Ki ([1]; Ki, Henderson plot, individual experiment, Ki ± s.d. per experiment, [S] 5.0 or 10.0 μM)?
**A.** Its Ki is 0.074 nM and 0.128 nM and 0.081 nM and 0.07 nM and 0.08 nM.

**Q.** And the Ki ([1]; Ki, Morrison equation, average, average ± S.E.M. of independent experiments)?
**A.** Its Ki is 0.16 ± 0.02 nM.

**Q.** What about the Ki ([1]; Ki, Morrison equation, individual experiment, Ki ± s.d. per experiment, [S] 5.0 μM) of the same molecule?
**A.** Its Ki is 0.16 nM (2×) and 0.21 nM.

**Q.** What about the “interaction with MMP-14, times stronger than galardin” value ([1]; ratio of Ki values, compound 1b vs galardin) of the same molecule?
**A.** Its value is 10 times.

**Q.** And the Ki ([1]; read-out: Ki, Morrison equation, individual experiment)?
**A.** Its Ki is 0.1 ± 0.06 nM.

**Q.** And the “Inhibitory effect (Ki: N.I.)” value [7]?
**A.** Its value is “no inhibitory effect and N.I”.

**Q.** What about the “Inhibitory effect (Ki: N.I.)” value ([3]; N.I. = no inhibition up to 100 μM of inhibitor) of the same molecule?
**A.** Its value is “no inhibitory effect; also recorded: N.I.^c”.

**Q.** What about the “Inhibitory effect (Ki: N.I.)” value [8] of the same molecule?
**A.** The value was “no inhibitory effect and N.I”.

**Q.** And the Ki [5]?
**A.** The Ki was 0.097 nM.

**Q.** And the “interaction with MMP-9, times stronger than galardin” value [9]?
**A.** The value was 5 to 10 times.

**Q.** Which Km [10] does the source give for auerolysin (Staphylococcus aureus) here?
**A.** Its Km is 47 ± 41 µM.

**Q.** For “pseudolysin (Pseudomonas aeruginosa PAO1)”, which Km ([11]; other: low precision, Km far above highest usable substrate concentration (10 μM)) is on record?
**A.** Its Km is 24 ± 8 µM.

**Q.** With “thermolysin (Bacillus thermoproteolyticus)” as the molecule, how does the Km ([11]; other: substrate 0.5 to 10.0 μM) read?
**A.** Its Km is 6 ± 1 µM.
